This note sets out measurements from ChEMBL document CHEMBL3091400, “The discovery of novel N-(2-pyrimidinylamino) benzamide derivatives as potent hedgehog signaling pathway inhibitors” (Bioorg Med Chem Lett, 2013).

In one series the target is Sonic hedgehog protein (Mus musculus, UniProt Q62226). In words: Inhibition of SHH signaling pathway in mouse NIH3T3 cells measured after 48 hrs by Gli-luciferase reporter assay. It counts as cell-based.
Series [1] can be described thus: Half life in Sprague-Dawley rat at 5 mg/kg, po. It counts as ADME, organism-based. On the set-up: dose 5 mg/kg, route oral. Particulars: in vivo.
A short description of series [2]: Mean residence time in Sprague-Dawley rat at 5 mg/kg, po. The class given is ADME, organism-based. On the set-up: dose 5 mg/kg, route oral. To be noted: in vivo.
The nature of series [3]: Clearance in Sprague-Dawley rat at 5 mg/kg, po. It counts as ADME, organism-based. To be noted: in vivo. Set-up: dose 5 mg/kg, route oral.
For series [4], the system named is Rattus norvegicus. In words: Volume of distribution at steady state in Sprague-Dawley rat at 5 mg/kg, po. The class given is ADME, organism-based. On the set-up: dose 5 mg/kg, route oral. To be noted: in vivo.
Series [5] is described as follows: AUC in Sprague-Dawley rat at 5 mg/kg, po. Set-up: dose 5 mg/kg, route oral. To be noted: plasma. It counts as ADME, organism-based.
The nature of series [6]: Cmax in Sprague-Dawley rat at 5 mg/kg, po. It counts as ADME, organism-based. Set-up: dose 5 mg/kg, route oral. To be noted: in vivo.
Series [7] is described as follows: Oral bioavailability in Sprague-Dawley rat at 5 mg/kg. The class given is ADME, organism-based. To be noted: in vivo.
Series [8] in a line: Half life in Sprague-Dawley rat at 1 mg/kg, iv. It counts as ADME, organism-based. To be noted: in vivo. On the set-up: dose 1 mg/kg, route intravenous.
In series [9] the test system is Rattus norvegicus. In words: Mean residence time in Sprague-Dawley rat at 1 mg/kg, iv. To be noted: in vivo. On the set-up: dose 1 mg/kg, route intravenous. It counts as ADME, organism-based.
The subject of series [10] is Rattus norvegicus. Kind of series: Clearance in Sprague-Dawley rat at 1 mg/kg, iv. To be noted: in vivo. The class given is ADME, organism-based. Set-up: dose 1 mg/kg, route intravenous.
Series [11] deals with Rattus norvegicus. Kind of series: Volume of distribution at steady state in Sprague-Dawley rat at 1 mg/kg, iv. The class given is ADME, organism-based. On the set-up: dose 1 mg/kg, route intravenous. To be noted: in vivo.
A short description of series [12]: AUC in Sprague-Dawley rat at 1 mg/kg, iv. It counts as ADME, organism-based. On the set-up: dose 1 mg/kg, route intravenous. Particulars: plasma.
A short description of series [13]: Cmax in Sprague-Dawley rat at 1 mg/kg, iv. To be noted: in vivo. It counts as ADME, organism-based. Set-up: dose 1 mg/kg, route intravenous.

Chain of Sonic hedgehog protein (Q62226 25-198 limits assumed): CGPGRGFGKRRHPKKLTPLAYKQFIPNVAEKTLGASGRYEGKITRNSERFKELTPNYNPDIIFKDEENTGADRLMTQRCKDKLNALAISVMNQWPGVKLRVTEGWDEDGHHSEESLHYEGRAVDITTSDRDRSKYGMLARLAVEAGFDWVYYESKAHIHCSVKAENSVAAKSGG

As usually defined, the IC50 is the midpoint of a concentration-inhibition curve. The low end stands for greater potency, the high end for weaker potency. Compound `Cc1cnc(Nc2ccc(C(=O)Nc3c(C)cccc3C)cc2)nc1-c1ccncc1` registered an IC50 against Sonic hedgehog protein of 0.54 nM. This counts as sub-nanomolar.

Compound `Cc1cccc(C)c1NC(=O)c1ccc(Nc2nc(C)c(C)c(-c3ccc(OC(F)(F)F)cc3)n2)cc1` had a 50% inhibitory concentration (IC50) at Sonic hedgehog protein of 1.6 nM.

In the case of `Cc1cccc(C)c1NC(=O)c1ccc(Nc2nccc(-c3ccc(OC(F)(F)F)cc3)n2)cc1`, at Sonic hedgehog protein, the 50% inhibitory concentration (IC50) came to 1.2 nM. At Sonic hedgehog protein, `Cc1cc(-c2ccc(OC(F)(F)F)cc2)nc(Nc2ccc(C(=O)Nc3c(C)cccc3C)cc2)n1` displayed a half-inhibitory concentration (IC50) of 1.4 nM. For the compound `Cc1cccc(C)c1NC(=O)c1ccc(Nc2ncc(F)c(-c3ccc(OC(F)(F)F)cc3)n2)cc1`, on Sonic hedgehog protein, the IC50 came to 1.6 nM. Consider `CCCc1cc(-c2ccc(OC(F)(F)F)cc2)nc(Nc2ccc(C(=O)Nc3c(C)cccc3C)cc2)n1`, for which the IC50 against Sonic hedgehog protein is 0.8 nM. The same measure, in the same setting: the result for `CCc1cnc(Nc2ccc(C(=O)Nc3c(C)cccc3C)cc2)nc1-c1ccc(OC(F)(F)F)cc1` reads 5.3 nM. Compound `Cc1cccc(C)c1NC(=O)c1ccc(Nc2cc(-c3ccc(OC(F)(F)F)cc3)ccn2)cc1` had a half-inhibitory concentration (IC50) against Sonic hedgehog protein of 1.6 nM. Still for that read-out and setting: under `Cc1cccc(C)c1NC(=O)c1ccc(Nc2cccc(-c3ccc(OC(F)(F)F)cc3)n2)cc1` stands 23.4 nM. As for `Cc1cccc(C)c1NC(=O)c1ccc(Nc2ncc(C(F)(F)F)c(-c3ccc(OC(F)(F)F)cc3)n2)cc1`, the 50% inhibitory concentration (IC50) against Sonic hedgehog protein was 0.53 nM. The compound `Cc1cnc(Nc2ccc(C(=O)Nc3c(C)cccc3C)cc2)nc1-c1cccnc1` had an IC50 at Sonic hedgehog protein of over 500 nM. Regarding `Cc1cnc(Nc2ccc(C(=O)Nc3c(C)cccc3C)cc2)nc1-c1cnn(C)c1`, the half-inhibitory concentration (IC50) at Sonic hedgehog protein was found to be 10.6 nM. `Cc1cnc(Nc2ccc(C(=O)Nc3c(C)cccc3C)cc2)nc1-c1ccoc1` gave a half-maximal inhibitory concentration (IC50) against Sonic hedgehog protein of 15.7 nM. `Cc1cnc(Nc2ccc(C(=O)Nc3c(C)cccc3C)cc2)nc1C1CC1` had a 50% inhibitory concentration (IC50) at Sonic hedgehog protein of 32.8 nM. `Cc1cnc(Nc2ccc(C(=O)Nc3c(C)cccc3C)cc2)nc1C` returned an IC50 on Sonic hedgehog protein of 152 nM. On the same count and under the same terms, the result for `Cc1cnc(Nc2ccc(C(=O)Nc3c(C)cccc3C)cc2)nc1Cc1ccccc1` reads 34.3 nM. At Sonic hedgehog protein, `Cc1cnc(N(C)c2ccc(C(=O)Nc3c(C)cccc3C)cc2)nc1-c1ccc(OC(F)(F)F)cc1` yielded an IC50 of 2.7 nM. The compound `Cc1ccccc1C(=O)Nc1ccc(Nc2ncc(C)c(-c3ccc(OC(F)(F)F)cc3)n2)cc1` showed an IC50 on Sonic hedgehog protein of 42.1 nM. Turning to `Cc1ccccc1NC(=O)c1ccc(Nc2ncc(C)c(-c3ccc(OC(F)(F)F)cc3)n2)cc1`, the midpoint of inhibition against Sonic hedgehog protein, the IC50, lay at 1 nM. With `Cc1ccc(-c2cnn(C)c2)cc1NC(=O)c1ccc(Nc2ncc(C)c(-c3ccc(OC(F)(F)F)cc3)n2)cc1`, the midpoint of inhibition on Sonic hedgehog protein, the IC50, lay at 1.2 nM. `Cc1cnc(Nc2ccc(C(=O)Nc3ccc(CN4CCN(C)CC4)cc3)cc2)nc1-c1ccc(OC(F)(F)F)cc1` displayed an IC50 against Sonic hedgehog protein of 118 nM.

Consider `Cc1cnc(Nc2ccc(C(=O)Nc3ccccc3CN3CCN(C)CC3)cc2)nc1-c1ccc(OC(F)(F)F)cc1`, for which it took 354 nM to reach half-maximal inhibition on Sonic hedgehog protein (IC50). At Sonic hedgehog protein, `Cc1cnc(Nc2ccc(C(=O)NC(C)C)cc2)nc1-c1ccc(OC(F)(F)F)cc1` yielded an IC50 of 73.1 nM.

`Cc1cnc(Nc2ccc(C(=O)NC3CCCCC3)cc2)nc1-c1ccc(OC(F)(F)F)cc1`: at Sonic hedgehog protein, inhibition was half-maximal at 2.2 nM (IC50).

Regarding `Cc1ccc(CN(C)Cc2ccccc2)cc1NC(=O)c1ccc(Nc2ncc(C)c(-c3ccc(OC(F)(F)F)cc3)n2)cc1`, the concentration for half-maximal inhibition (IC50) against Sonic hedgehog protein is 1.1 nM. Compound `Cc1ccc(CN(C)Cc2ccccc2)cc1NC(=O)c1ccc(Nc2ncc(C)c(C)n2)cc1` had an IC50 on Sonic hedgehog protein of 101 nM. As for `Cc1cccc(C)c1NC(=O)c1ccc(Nc2ncc(C3CC3)c(-c3ccc(OC(F)(F)F)cc3)n2)cc1`, the IC50 against Sonic hedgehog protein came to 1.3 nM. This IC50 is about 78-fold lower than that of the compound before.

Consider `Cc1cnc(Nc2ccc3[nH]ncc3c2)nc1-c1ccc(OC(F)(F)F)cc1`, for which the IC50 against Sonic hedgehog protein was 125 nM. `Cc1cnc(Nc2ccc(N3C[C@@H](C)O[C@@H](C)C3)nc2)nc1-c1ccc(OC(F)(F)F)cc1`: the IC50 on Sonic hedgehog protein is over 500 nM. By half-life is commonly meant the time in which the quantity being followed falls by half. As a reminder, the MRT is a mean duration of stay, worked out from the concentration-time curve. The CL/F is clearance divided by bioavailability, as obtained after extravascular dosing. As usually defined, the AUC is the area under the concentration-time curve, a measure of exposure. The Cmax is the maximum level reached in the sampled fluid or tissue. Broadly, the bioavailability is dose-corrected exposure relative to a reference, in per cent. As for `Cc1cnc(Nc2ccc(C(=O)Nc3c(C)cccc3C)cc2)nc1-c1ccc(OC(F)(F)F)cc1`, the half-life is 7 h in series [1] and 10.3 h in [8]. In addition, the mean residence time (MRT) in [2] stood at 5.1 h; in the series on Rattus norvegicus [9], 4 h. The same compound showed a CL/F in series [3] of 46.6 mL/min/kg. Also, the results for the Vdss in the series with Rattus norvegicus [4] and in the series with Rattus norvegicus [11] were 27.738 L/kg and 14.898 L/kg, respectively. For the same compound, the AUC in series [5] is 1700 ng·h/mL; in series [12] it was 915 ng·h/mL. Further, the figures for the highest concentration (Cmax) in [6] and in series [13] were 342 ng/mL and 764 ng/mL, respectively. In [7], this compound had a bioavailability of 36%. Further, the CL in the series on Rattus norvegicus [10] was determined as 16.73 mL/min/kg. The compound also returned an IC50 against Sonic hedgehog protein of 1.3 nM.

The compound `Cc1cnc(Nc2ccc(C(=O)Nc3c(C)cccc3C)cc2)nc1-c1cccc(OC(F)(F)F)c1` registered a half-maximal inhibitory concentration (IC50) against Sonic hedgehog protein of 1.2 nM. On the same count and under the same terms, under `Cc1cnc(Nc2ccc(C(=O)Nc3c(C)cccc3C)cc2)nc1-c1ccccc1OC(F)(F)F` stands over 500 nM; under `Cc1cnc(Nc2ccc(C(=O)Nc3c(C)cccc3C)cc2)nc1-c1ccc(OC(F)(F)F)c(F)c1`, 159 nM. `Cc1cnc(Nc2ccc(C(=O)Nc3c(C)cccc3C)cc2)nc1-c1ccc(C#N)cc1` registered an IC50 against Sonic hedgehog protein of 2.8 nM.

As to `Cc1cnc(Nc2ccc(C(=O)Nc3c(C)cccc3C)cc2)nc1-c1ccc(N2CCOCC2)cc1`, 20.2 nM corresponded to half-maximal inhibition on Sonic hedgehog protein (IC50).

For the compound `Cc1cnc(Nc2ccc(C(=O)Nc3c(C)cccc3C)cc2)nc1-c1ccc(F)cc1`, on Sonic hedgehog protein, the IC50 is 2.2 nM. `Cc1ccc(-c2nc(Nc3ccc(C(=O)Nc4c(C)cccc4C)cc3)ncc2C)cc1` had an IC50 against Sonic hedgehog protein of over 500 nM.

On to `Cc1cnc(Nc2ccc(C(=O)Nc3c(C)cccc3C)cc2)nc1-c1ccccc1`, for which, at Sonic hedgehog protein, the IC50 was determined as 1.3 nM. Take `Cc1c(C(=O)Nc2ccc(N3C[C@@H](C)O[C@@H](C)C3)nc2)cccc1-c1ccc(OC(F)(F)F)cc1` [SONIDEGIB]: half-maximal inhibition at Sonic hedgehog protein (IC50) was put at 5.5 nM. Compared with the last compound, the IC50 is about 4.2-fold higher.

As to `CS(=O)(=O)c1ccc(C(=O)Nc2ccc(Cl)c(-c3ccccn3)c2)c(Cl)c1` [VISMODEGIB], the half-maximal inhibitory concentration (IC50) at Sonic hedgehog protein amounted to 7.2 nM.
